Source: ChEMBL document CHEMBL4387741, “Optimization of novel reversible Bruton's tyrosine kinase inhibitors identified using Tethering-fragment-based screens” (Bioorg Med Chem, 2019)

What was measured:
[1] = target: Tyrosine-protein kinase BTK (Homo sapiens, UniProt Q06187); test: Inhibition of BTK in human PBMC assessed as reduction in CD69 expression
[2] = tested on: Tyrosine-protein kinase ABL1 (Homo sapiens), P00519 [H396P]; test: Inhibition of human phosphorylated ABL1 H396P mutant (S229 to K512 residues) expressed in mammalian expression system at 1 uM by Kinomescan method relative to control
[3] = tested on: Tyrosine-protein kinase ABL1 (Homo sapiens), P00519 [Y253F]; test: Inhibition of human phosphorylated ABL1 Y253F mutant (S229 to K512 residues) expressed in mammalian expression system at 1 uM by Kinomescan method relative to control
[4] = target: Activin receptor type-1-like (Homo sapiens) (UniProt P37023); test: Inhibition of wild-type human ACVRL1 (L164 to Q503 residues) expressed in bacterial expression system at 1 uM by Kinomescan method relative to control
[5] = target: Calcium/calmodulin-dependent protein kinase type II subunit alpha (Homo sapiens) (UniProt Q9UQM7); test: Inhibition of wild-type human partial length CAMK2A (M1 to K328 residues) expressed in bacterial expression system at 1 uM by Kinomescan method relative to control
Calcium/calmodulin-dependent protein kinase type II subunit alpha (Homo sapiens), sequence (Q9UQM7 whole entry, the tested form may be a part): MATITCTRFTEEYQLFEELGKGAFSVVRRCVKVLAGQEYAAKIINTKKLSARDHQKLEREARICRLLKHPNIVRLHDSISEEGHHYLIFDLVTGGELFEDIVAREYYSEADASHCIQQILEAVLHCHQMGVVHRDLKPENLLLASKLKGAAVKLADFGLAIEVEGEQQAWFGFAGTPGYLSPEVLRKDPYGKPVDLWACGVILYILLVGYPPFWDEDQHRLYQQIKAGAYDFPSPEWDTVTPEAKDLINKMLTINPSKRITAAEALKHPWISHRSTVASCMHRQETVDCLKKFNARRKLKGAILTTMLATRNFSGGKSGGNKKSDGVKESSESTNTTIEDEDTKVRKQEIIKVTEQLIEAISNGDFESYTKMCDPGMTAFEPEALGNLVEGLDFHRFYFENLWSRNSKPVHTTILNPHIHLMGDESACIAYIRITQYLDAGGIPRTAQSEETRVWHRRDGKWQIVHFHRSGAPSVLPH

[6] = target: Serine/threonine-protein kinase DCLK3 (Homo sapiens) (UniProt Q9C098); test: Inhibition of wild-type human partial length DCAMKL3 (E140 to V628 residues) expressed in bacterial expression system at 1 uM by Kinomescan method relative to control
[7] = target: Mitogen-activated protein kinase 1 (Homo sapiens) (UniProt P28482); test: Inhibition of wild-type human full length ERK2 (M1 to S360 residues) expressed in bacterial expression system at 1 uM by Kinomescan method relative to control
[8] = target: Cyclin-G-associated kinase (Homo sapiens) (UniProt O14976); test: Inhibition of wild-type human partial length GAK (G13 to Y338 residues) expressed in bacterial expression system at 1 uM by Kinomescan method relative to control
[9] = target: Homeodomain-interacting protein kinase 3 (Homo sapiens) (UniProt Q9H422); test: Inhibition of wild-type human partial length HIPK3 (M153 to N562 residues) expressed in mammalian expression system at 1 uM by Kinomescan method relative to control
[10] = target: Tyrosine-protein kinase JAK1 (Homo sapiens) (UniProt P23458); test: Inhibition of wild-type human partial length JAK1 JH2 pseudokinase domain (R537 to D855 residues) expressed in mammalian expression system at 1 uM by Kinomescan method relative to control
Tyrosine-protein kinase JAK1 (Homo sapiens), sequence (P23458 whole entry, the tested form may be a part): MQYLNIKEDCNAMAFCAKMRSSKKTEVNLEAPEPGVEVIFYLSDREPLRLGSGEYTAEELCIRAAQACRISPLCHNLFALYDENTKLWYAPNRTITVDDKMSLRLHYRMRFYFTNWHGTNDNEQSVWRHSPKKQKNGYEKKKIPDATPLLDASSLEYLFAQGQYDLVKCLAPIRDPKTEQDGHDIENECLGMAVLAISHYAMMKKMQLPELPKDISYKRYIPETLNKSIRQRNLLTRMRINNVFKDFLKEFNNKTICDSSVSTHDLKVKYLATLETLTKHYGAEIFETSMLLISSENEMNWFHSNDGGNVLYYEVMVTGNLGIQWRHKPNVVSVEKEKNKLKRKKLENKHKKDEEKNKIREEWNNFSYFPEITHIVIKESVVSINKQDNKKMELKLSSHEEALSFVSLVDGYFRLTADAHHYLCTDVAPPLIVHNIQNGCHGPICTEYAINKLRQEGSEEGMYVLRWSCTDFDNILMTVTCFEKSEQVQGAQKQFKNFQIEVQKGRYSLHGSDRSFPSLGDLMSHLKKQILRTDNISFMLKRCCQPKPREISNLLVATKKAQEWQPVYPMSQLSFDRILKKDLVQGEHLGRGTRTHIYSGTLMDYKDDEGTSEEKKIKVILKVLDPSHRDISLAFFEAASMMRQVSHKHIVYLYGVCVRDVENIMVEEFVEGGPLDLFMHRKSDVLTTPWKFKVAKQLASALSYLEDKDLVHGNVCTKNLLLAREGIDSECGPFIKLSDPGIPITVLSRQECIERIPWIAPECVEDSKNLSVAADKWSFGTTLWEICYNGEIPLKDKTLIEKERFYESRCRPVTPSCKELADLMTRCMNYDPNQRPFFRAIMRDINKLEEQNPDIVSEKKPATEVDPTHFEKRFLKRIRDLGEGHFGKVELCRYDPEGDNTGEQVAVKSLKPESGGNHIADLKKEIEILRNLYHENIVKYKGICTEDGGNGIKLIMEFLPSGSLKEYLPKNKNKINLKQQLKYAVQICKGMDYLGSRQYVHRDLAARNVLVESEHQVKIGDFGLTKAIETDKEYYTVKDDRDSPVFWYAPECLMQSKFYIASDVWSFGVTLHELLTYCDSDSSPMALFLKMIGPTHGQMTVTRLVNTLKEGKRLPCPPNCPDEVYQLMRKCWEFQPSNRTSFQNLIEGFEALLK

[11] = target: MAP/microtubule affinity-regulating kinase 3 (Homo sapiens) (UniProt P27448); test: Inhibition of wild-type human full length MARK3 (M1 to L729 residues) expressed in bacterial expression system at 1 uM by Kinomescan method relative to control
[12] = target: Serine/threonine-protein kinase 38-like (Homo sapiens) (UniProt Q9Y2H1); test: Inhibition of wild-type human partial length NDR2 (N34 to E447 residues) expressed in bacterial expression system at 1 uM by Kinomescan method relative to control
Serine/threonine-protein kinase 38-like (Homo sapiens), sequence (Q9Y2H1 2-464 limits assumed): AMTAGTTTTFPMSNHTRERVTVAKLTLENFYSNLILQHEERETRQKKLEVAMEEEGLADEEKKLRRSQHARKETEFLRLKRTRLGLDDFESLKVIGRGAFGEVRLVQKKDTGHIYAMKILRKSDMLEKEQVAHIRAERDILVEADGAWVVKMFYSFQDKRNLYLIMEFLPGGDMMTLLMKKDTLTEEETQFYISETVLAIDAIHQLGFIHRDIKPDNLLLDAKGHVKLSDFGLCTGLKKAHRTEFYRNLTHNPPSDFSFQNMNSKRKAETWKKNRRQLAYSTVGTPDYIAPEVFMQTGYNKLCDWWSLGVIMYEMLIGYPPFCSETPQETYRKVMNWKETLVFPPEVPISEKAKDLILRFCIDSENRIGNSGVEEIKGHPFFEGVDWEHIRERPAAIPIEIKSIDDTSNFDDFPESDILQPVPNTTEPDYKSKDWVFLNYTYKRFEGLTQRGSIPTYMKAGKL

[13] = target: Cyclin-dependent kinase 2 homolog (Plasmodium falciparum (isolate 3D7)) (UniProt P61075); test: Inhibition of wild-type Plasmodium falciparum full length PK5 (M1 to N288 residues) expressed in mammalian expression system at 1 uM by Kinomescan method relative to control
Cyclin-dependent kinase 2 homolog (Plasmodium falciparum (isolate 3D7)), sequence (P61075 whole entry, the tested form may be a part, canonical isoform): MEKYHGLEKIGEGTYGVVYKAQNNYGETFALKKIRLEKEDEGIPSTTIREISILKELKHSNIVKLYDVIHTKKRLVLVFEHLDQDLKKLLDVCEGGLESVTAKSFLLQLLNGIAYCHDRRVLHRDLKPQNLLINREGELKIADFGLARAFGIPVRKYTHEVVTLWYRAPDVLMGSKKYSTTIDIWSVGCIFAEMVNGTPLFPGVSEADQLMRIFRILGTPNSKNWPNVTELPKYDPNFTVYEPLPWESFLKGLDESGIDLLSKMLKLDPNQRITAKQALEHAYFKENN

[14] = tested on: Phosphatidylinositol 4,5-bisphosphate 3-kinase catalytic subunit alpha isoform (Homo sapiens), P42336 [H1047L]; test: Inhibition of human partial length PIK3CA H1047L mutant (R108 to N1068 residues) expressed in mammalian expression system at 1 uM by Kinomescan method relative to control
Phosphatidylinositol 4,5-bisphosphate 3-kinase catalytic subunit alpha isoform (Homo sapiens), P42336 [H1047L], sequence (P42336 whole entry H1047L, the tested form may be a part, canonical isoform): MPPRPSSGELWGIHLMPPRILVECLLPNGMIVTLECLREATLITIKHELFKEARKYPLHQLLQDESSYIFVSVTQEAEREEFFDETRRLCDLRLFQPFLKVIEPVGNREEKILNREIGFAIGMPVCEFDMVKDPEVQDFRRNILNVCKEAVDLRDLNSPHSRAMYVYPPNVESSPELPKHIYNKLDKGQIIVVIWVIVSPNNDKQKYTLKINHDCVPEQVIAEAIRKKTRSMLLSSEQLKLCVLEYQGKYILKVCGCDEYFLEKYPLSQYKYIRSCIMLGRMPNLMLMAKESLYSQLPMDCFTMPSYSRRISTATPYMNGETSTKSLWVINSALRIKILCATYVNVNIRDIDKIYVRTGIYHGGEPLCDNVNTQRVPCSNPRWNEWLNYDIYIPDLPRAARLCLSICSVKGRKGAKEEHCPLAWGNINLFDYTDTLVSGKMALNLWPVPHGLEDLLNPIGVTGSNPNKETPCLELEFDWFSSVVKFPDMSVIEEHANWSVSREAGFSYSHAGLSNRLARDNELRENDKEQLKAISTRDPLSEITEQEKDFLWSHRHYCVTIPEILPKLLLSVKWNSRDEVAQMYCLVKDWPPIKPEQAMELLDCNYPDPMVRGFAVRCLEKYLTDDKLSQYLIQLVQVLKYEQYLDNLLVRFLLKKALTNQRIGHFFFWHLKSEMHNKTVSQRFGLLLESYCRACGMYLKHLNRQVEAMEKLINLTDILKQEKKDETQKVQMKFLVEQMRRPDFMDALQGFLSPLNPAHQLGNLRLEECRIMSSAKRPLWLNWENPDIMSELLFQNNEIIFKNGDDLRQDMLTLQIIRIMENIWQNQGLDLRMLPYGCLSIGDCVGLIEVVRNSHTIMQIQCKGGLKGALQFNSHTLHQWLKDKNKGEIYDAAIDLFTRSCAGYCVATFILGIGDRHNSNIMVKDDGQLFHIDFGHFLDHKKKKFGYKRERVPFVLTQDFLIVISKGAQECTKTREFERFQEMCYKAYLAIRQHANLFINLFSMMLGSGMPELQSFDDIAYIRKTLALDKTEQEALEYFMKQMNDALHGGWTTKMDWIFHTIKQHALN

[15] = target: Protein kinase C iota type (Homo sapiens) (UniProt P41743); test: Inhibition of wild-type human partial length PRKCI (H215 to V587 residues) expressed in mammalian expression system at 1 uM by Kinomescan method relative to control
Protein kinase C iota type (Homo sapiens), sequence (P41743 whole entry, the tested form may be a part): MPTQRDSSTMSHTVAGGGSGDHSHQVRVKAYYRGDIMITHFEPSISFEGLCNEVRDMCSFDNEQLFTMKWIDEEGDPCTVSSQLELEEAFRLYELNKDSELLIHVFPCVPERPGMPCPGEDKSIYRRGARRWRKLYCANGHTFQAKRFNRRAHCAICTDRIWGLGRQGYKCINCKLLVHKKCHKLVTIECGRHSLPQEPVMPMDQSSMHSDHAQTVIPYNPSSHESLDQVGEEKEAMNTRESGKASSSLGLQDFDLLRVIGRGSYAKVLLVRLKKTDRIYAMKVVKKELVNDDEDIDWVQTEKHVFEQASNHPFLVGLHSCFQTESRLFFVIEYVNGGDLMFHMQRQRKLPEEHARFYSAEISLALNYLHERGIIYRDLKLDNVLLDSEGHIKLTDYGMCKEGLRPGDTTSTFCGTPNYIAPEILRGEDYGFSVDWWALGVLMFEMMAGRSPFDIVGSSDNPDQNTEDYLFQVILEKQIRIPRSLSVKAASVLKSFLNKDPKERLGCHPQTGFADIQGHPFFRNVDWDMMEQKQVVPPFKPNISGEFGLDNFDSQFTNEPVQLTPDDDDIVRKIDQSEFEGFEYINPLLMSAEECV

[16] = target: Serine/threonine-protein kinase 16 (Homo sapiens) (UniProt O75716); test: Inhibition of wild-type human partial length STK16 (G11 to I305 residues) expressed in bacterial expression system at 1 uM by Kinomescan method relative to control
Serine/threonine-protein kinase 16 (Homo sapiens), sequence (O75716 whole entry, the tested form may be a part): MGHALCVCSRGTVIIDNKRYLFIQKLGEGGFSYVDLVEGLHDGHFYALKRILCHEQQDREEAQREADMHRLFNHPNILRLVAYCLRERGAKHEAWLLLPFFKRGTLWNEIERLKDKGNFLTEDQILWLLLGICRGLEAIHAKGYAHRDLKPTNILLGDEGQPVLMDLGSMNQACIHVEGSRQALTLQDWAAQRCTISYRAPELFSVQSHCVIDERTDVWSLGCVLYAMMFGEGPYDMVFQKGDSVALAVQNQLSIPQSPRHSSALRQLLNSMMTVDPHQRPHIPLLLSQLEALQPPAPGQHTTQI

[17] = target: STE20/SPS1-related proline-alanine-rich protein kinase (Homo sapiens) (UniProt Q9UEW8); test: Inhibition of wild-type human partial length STK39 (P43 to I357 residues) expressed in mammalian expression system at 1 uM by Kinomescan method relative to control
[18] = target: Phosphatidylinositol 3-kinase catalytic subunit type 3 (Homo sapiens) (UniProt Q8NEB9); test: Inhibition of wild-type human partial length VPS34 (S282 to H879 residues) expressed in mammalian expression system at 1 uM by Kinomescan method relative to control
[19] = tested on: Serine/threonine-protein kinase B-raf (Homo sapiens), P15056 [V600E]; test: Inhibition of human partial length BRAF V600E mutant (S429 to E741 residues) expressed in mammalian expression system at 10 uM by Kinomescan method relative to control
[20] = target: Ephrin type-A receptor 3 (Homo sapiens) (UniProt P29320); test: Inhibition of wild-type human partial length EPHA3 (D604 to K889 residues) expressed in bacterial expression system at 10 uM by Kinomescan method relative to control
[21] = target: Ephrin type-B receptor 2 (Homo sapiens) (UniProt P29323); test: Inhibition of wild-type human partial length EPHB2 (I597 to L902 residues) expressed in bacterial expression system at 10 uM by Kinomescan method relative to control
[22] = target: Fibroblast growth factor receptor 3 (Homo sapiens) (UniProt P22607); test: Inhibition of wild-type human partial length FGFR3 (R442 to S771 residues) expressed in bacterial expression system at 10 uM by Kinomescan method relative to control
[23] = target: G protein-coupled receptor kinase 3 (Homo sapiens) (UniProt P35626); test: Inhibition of wild-type human full length GRK3 (M1 to L688 residues) expressed in mammalian expression system at 10 uM by Kinomescan method relative to control
[24] = target: Serine/threonine-protein kinase 4 (Homo sapiens) (UniProt Q13043); test: Inhibition of wild-type human full length MST1 (M1 to F487 residues) expressed in bacterial expression system at 10 uM by Kinomescan method relative to control
[25] = tested on: Phosphatidylinositol 4,5-bisphosphate 3-kinase catalytic subunit alpha isoform (Homo sapiens), P42336 [M1043I]; test: Inhibition of human partial length PIK3CA M1043I mutant (R108 to N1068 residues) expressed in mammalian expression system at 10 uM by Kinomescan method relative to control
[26] = target: Serine/threonine-protein kinase 16 (Homo sapiens) (UniProt O75716); test: Inhibition of wild-type human partial length STK16 (G11 to I305 residues) expressed in bacterial expression system at 10 uM by Kinomescan method relative to control
[27] = target: Serine/threonine-protein kinase WNK2 (Homo sapiens) (UniProt Q9Y3S1); test: Inhibition of wild-type human partial length WNK2 (V47 to D482 residues) expressed in mammalian expression system at 10 uM by Kinomescan method relative to control

Tyrosine-protein kinase BTK, sequence (Q06187 whole entry, the tested form may be a part): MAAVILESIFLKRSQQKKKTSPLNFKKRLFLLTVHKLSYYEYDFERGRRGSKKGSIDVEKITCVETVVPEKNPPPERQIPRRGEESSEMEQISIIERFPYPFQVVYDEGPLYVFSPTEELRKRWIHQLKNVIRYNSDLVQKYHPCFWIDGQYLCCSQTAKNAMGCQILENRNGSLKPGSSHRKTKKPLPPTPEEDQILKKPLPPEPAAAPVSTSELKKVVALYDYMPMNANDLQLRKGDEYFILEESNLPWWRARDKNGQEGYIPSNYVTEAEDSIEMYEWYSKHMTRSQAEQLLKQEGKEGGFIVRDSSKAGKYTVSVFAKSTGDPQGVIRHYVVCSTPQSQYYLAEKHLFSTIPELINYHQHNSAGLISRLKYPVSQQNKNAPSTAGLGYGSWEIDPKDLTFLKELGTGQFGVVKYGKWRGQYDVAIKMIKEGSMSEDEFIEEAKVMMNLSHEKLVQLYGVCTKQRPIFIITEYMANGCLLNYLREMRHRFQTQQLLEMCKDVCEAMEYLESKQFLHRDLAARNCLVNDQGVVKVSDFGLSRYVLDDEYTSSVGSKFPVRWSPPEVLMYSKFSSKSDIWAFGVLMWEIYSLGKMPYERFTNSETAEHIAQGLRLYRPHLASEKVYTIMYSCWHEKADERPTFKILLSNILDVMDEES

SMILES: O=C(Nc1cccc([C@@H]2CN(c3ncnc4[nH]ccc34)CCN2CCO)c1)Nc1c(F)cccc1N1CCCC1
- IC50 [1]: 240 nM
- inhibition [2]: 71%
- inhibition [3]: 100%
- inhibition [4]: 100%
- inhibition [5]: 95%
- inhibition [6]: 85%
- inhibition [7]: 90%
- inhibition [8]: 96%
- inhibition [9]: 86%
- inhibition [10]: 75%
- inhibition [11]: 100%
- inhibition [12]: 100%
- inhibition [13]: 100%
- inhibition [14]: 100%
- inhibition [15]: 54%
- inhibition [16]: 82%
- inhibition [17]: 75%
- inhibition [18]: 100%

SMILES: O=C(Nc1cccc([C@H]2CCCN(c3ncnc4[nH]ccc34)C2)c1)Nc1ccccc1N1CCCC1
- inhibition [19]: 16%
- inhibition [20]: 74%
- inhibition [21]: 69%
- inhibition [22]: 46%
- inhibition [23]: 71%
- inhibition [24]: 47%
- inhibition [25]: 93%
- inhibition [26]: 18%
- inhibition [27]: 100%
